Test [1] deals with T1, His-PSMA (Homo sapiens, UniProt Q04609).
T1 construct: made in house; host or cells: Drosophila Schneider's S2 cells, vector pMT/BiP/V5-HisA (pMT-His-PSMA), purified from conditioned media on Ni-NTA
As to the kind of experiment: PSMA enzymatic assay (NAALADase activity, 3H-NAAG hydrolysis). The settings on record: ratio of inhibitory potency, dimeric vs monomeric peptide. Format: biochemical. As to the method:
FIG. 4 depicts the inhibition of NAALADase activity of PSMA by monomeric and dimeric peptides. His-PSMA hydrolysis of ^3H-NAAG was assayed as described in the methods in the absence or presence of indicated concentration of monomeric or dimeric peptide. After 15 min incubation at 37° C. amount of released 3H-Glu was determined. Percent inhibition is the ratio of amount of 3H-Glu released in presence of peptide compared to control (i.e. His-PSMA only). Data plotted are average of duplicate experiments and best fit line is included.
(§1) PSMA Enzymatic Assay The enzymatic activity assay for PSMA was adapted as previously described by Tiffany et al. (21). PSMA (5 nM) incubated with or without peptides was added to PSMA assay buffer (10 mM CoCl2, 50 mM Tris, pH 7.4). Following a 30 mins incubation at 37° C., N-acetyl-aspartyl-3H glutamate (3H-NAAG) (NEN, Boston, Mass.) was added to final concentration of 25 nM and reactions incubated for 15 mins at 37° C. Data were collected during linear phase of hydrolysis (i.e. less than 20% cleavage of total substrate).

Test [2] has as its target T1, His-PSMA. The settings on record: substrate hydrolysis by PSMA, reference (21); cited from earlier work.
Test [3] concerns PSMA-positive (LNCaP, CWR22R) human prostate cancer cells. Briefly: Fluorescent peptide binding to PSMA-positive prostate cancer cells (confocal microscopy). It counts as cell-based. The method, then:
FIG. 5 depicts dimeric […] (SEQ ID NO:1) peptide binds selectively to PSMA-producing prostate cancer cells. Attached PSMA-positive (LNCaP, CWR22R) and PSMA-negative (PC-3, DU145) human prostate cancer were prelabeled with Orange Cell Tracker (Invitrogen) at 2.5 μM in RPMI for 30 mins. After washing with Hanks balanced salt solution, cells were incubated with FITC-labeled monomeric (50 μM) or dimeric (5 μM) […] (SEQ ID NO:1) peptide in 1% fetal calf serum containing media for 1 hr. Cells were washed 3 times with PBS and fixed with 1% Formalin for ½ hr at room temperature. Cells were visualized using Zeiss Meta 510 confocal microscope at 20× magnification. Top panels show orange cell tracker labeled cells (rhodamine filter set); middle panels show labeled peptide binding (FITC filter set); bottom panel show overlay of both panels.
Binding of […] (SEQ ID NO:1) peptides to PSMA-expressing cell lines—To analyze peptide binding to membrane bound PSMA, fluorescently labeled peptides were synthesized by coupling FITC to the C-terminus of either the monomeric or dimeric peptide. […] In contrast, cell binding of the dimeric […] (SEQ ID NO:1) peptide could be easily visualized at concentrations as low as 5 μM, FIG. 5. Labeled, dimeric peptide bound to a similar degree to both CWR22R and LNCAP.

The target in test [4] is T2, PSMA (Homo sapiens, UniProt Q04609).
T2 construct: made in house; host or cells: Drosophila Schneider's S2 cells, vector pMT/BiP/V5-HisA (pMT-His-PSMA), purified from conditioned media on Ni-NTA
T2 sequence (Q04609 44-750 limits assumed): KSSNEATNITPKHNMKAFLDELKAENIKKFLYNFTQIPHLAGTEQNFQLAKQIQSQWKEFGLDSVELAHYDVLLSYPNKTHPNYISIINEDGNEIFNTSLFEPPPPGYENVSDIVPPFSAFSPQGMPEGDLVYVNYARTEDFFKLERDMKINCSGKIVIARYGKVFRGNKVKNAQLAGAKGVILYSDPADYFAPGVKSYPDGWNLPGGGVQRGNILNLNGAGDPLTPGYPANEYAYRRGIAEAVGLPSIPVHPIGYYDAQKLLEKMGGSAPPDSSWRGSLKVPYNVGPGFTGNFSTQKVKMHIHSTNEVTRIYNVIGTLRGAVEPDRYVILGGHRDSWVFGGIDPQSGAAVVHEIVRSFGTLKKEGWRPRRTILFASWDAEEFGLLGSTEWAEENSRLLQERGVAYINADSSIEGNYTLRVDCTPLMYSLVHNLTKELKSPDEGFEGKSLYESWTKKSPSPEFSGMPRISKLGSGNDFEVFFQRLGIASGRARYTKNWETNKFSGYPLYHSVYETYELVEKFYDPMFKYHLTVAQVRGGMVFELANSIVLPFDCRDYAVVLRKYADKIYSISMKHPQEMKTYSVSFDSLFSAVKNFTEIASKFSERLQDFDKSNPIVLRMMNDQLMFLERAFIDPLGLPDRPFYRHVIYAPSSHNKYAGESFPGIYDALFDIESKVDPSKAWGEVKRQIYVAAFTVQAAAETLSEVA
As to the kind of experiment: Soluble biotinylated peptide binding to immobilized PSMA or BSA. The conditions noted are these: biotinylated peptide incubated with immobilized PSMA (0.625 μgs) or BSA. The method, then: FIGS. 3A-B depict (A) Soluble […] (Biotin) (SEQ ID NO: 37) peptide binding to BSA and PSMA. Recombinant PSMA (0.625 μgs) and BSA (25 μgs/ml) were immobilized and indicated concentrations of the biotinylated […] (SEQ ID NO:1) peptide were incubated with immobilized PSMA or BSA. […] (B) Comparison of PSMA binding to monomeric (SEQ ID NO: 37) and dimeric (core peptide disclosed as SEQ ID NO: 1) form of the […] (SEQ ID NO:1) peptide. Biotin labeled monomeric and dimeric peptide were immobilized on streptavidin-coated plates then incubated with His-PSMA (100 nM). Results are the mean binding in 4 replicate wells each ±S.D.
Soluble Synthetic […] (SEQ ID NO:1) peptide binds selectively to PSMA—On the basis of the phage binding results, the […] (SEQ ID NO:1) peptide was synthesized with biotin coupled to the C-terminus.

The target of test [5] is T3, full length membrane bound form of PSMA (Homo sapiens, UniProt Q04609).
T3 construct: endogenous in cells; host or cells: LNCaP cell lysate
T3 sequence (Q04609 whole entry): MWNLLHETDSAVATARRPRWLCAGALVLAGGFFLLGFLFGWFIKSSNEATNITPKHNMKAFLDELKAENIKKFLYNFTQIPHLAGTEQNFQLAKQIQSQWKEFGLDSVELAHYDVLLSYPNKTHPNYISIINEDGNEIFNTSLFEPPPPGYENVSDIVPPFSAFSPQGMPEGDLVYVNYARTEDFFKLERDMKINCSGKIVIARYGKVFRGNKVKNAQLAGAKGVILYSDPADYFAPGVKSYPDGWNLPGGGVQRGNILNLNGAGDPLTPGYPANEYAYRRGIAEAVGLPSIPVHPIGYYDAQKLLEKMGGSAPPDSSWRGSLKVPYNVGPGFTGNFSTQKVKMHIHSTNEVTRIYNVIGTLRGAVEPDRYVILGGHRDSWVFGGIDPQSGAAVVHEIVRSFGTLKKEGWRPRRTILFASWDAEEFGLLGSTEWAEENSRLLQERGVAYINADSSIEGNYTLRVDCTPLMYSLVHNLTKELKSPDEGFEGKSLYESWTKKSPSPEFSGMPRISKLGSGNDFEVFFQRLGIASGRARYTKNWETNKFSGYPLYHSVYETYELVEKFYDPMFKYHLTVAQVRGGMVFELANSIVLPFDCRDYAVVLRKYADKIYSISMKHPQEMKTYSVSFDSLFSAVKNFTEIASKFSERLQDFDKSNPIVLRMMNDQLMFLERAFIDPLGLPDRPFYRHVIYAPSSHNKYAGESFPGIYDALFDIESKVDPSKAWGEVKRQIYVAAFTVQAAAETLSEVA
Briefly: NAAG hydrolysis assay with cell lysates from PSMA-producing LNCaP. Format: biochemical. The conditions noted are these: peptide at 60 μM. As to the method: as §1
[…] (SEQ ID NO:1) peptide inhibits PSMA's enzyme activity—Functionally, PSMA has been classified as a glutamate carboxypeptidase II (25) with activity as both an N-acetylated α-linked acidic dipeptidase (NAALADase) (26) and as a pteroyl poly-γ-glutamyl carboxypeptidase (i.e. folate hydrolase) (27). […] Therefore, the monomeric and dimeric […] (SEQ ID NO:1) peptides were incubated initially with PSMA for 30 mins and then ^3H NAAG substrate was added to prevent any NAAG hydrolysis before the peptide is able to bind to PSMA. Control peptides included the […] (SEQ ID NO: 22) peptide and a short peptide HHWA (SEQ ID NO: 26) containing the apparent consensus motif from the phage display. […] In a second experiment, cell lysates from PSMA-producing LNCaP were used instead of purified recombinant His-PSMA.

Bridge positions count the residues as written; N and C are the ends. Primed or numbered codes have the meaning given here. Ends that are not written are not given here. Peptide text beside a SMILES is read from it. I, II: the chains in the order shown. * marks the point of attachment. Biotin = O=C1N[C@H]2[C@H](CS[C@H]2CCCCC(=O)*)N1; FITC′ = fluorescein isothiocyanate label

T1 sequence (Q04609 44-750 limits assumed): as the sequence (Q04609 44-750 limits assumed) above

With `CC(C)C[C@H](NC(=O)[C@@H](NC(=O)[C@H](C)NC(=O)[C@H](Cc1c[nH]c2ccccc12)NC(=O)[C@H](Cc1c[nH]cn1)NC(=O)[C@H](Cc1c[nH]cn1)NC(=O)[C@H](C)NC(=O)[C@@H](NC(=O)[C@H](CC(=O)O)NC(=O)[C@@H]1CCCN1C(=O)[C@H](CCC(N)=O)NC(=O)[C@@H](N)Cc1c[nH]c2ccccc12)[C@@H](C)O)[C@@H](C)O)C(=O)NCCCC[C@H](NC(=O)[C@H](CC(C)C)NC(=O)[C@@H](NC(=O)[C@H](C)NC(=O)[C@H](Cc1c[nH]c2ccccc12)NC(=O)[C@H](Cc1c[nH]cn1)NC(=O)[C@H](Cc1c[nH]cn1)NC(=O)[C@H](C)NC(=O)[C@@H](NC(=O)[C@H](CC(=O)O)NC(=O)[C@@H]1CCCN1C(=O)[C@H](CCC(N)=O)NC(=O)[C@@H](N)Cc1c[nH]c2ccccc12)[C@@H](C)O)[C@@H](C)O)C(=O)N[C@@H](CCCCNC(=O)CCCC[C@@H]1SC[C@@H]2NC(=O)N[C@@H]21)C(=O)O` (I: H-WQPDTAHHWATLKK(Biotin)-OH / II: H-WQPDTAHHWATL; amide I:13-II:C; N-terminus assumed), in test [1], the “PSMA inhibition of dimer relative to monomer” value is listed as ~10 fold.

With `CC(=O)N[C@@H](CC(=O)O)C(=O)N[C@@H](CCC(=O)O)C(=O)O` [^3H NAAG, N-acetyl-aspartyl-3H glutamate] (Ac-Asp-Glu-OH), in test [2], the Km (commonly the concentration of substrate that gives half-maximal velocity) is 0.43 µM and the “kcat for PSMA” value is 0.6 s⁻¹.

Regarding “FITC-labeled monomeric WQPDTAHHWATL peptide: fluorescently labeled peptide made by coupling FITC to the C-terminus of the monomeric peptide (WQPDTAHHWATL-{FITC′})”, the “cell binding above background autofluorescence” value in test [3] (FITC-labeled peptide at 1, 5, 10, 50 μM) is “could not be observed at any of the tested concentrations”. Besides, the “peptide concentration at which cell binding could be visualized” value in test [3] (FITC-labeled peptide tested at 1, 5, 10, 50 μM, 1% fetal bovine serum media, 1 hr) was > 50 µM.

For “QMARIPKRLARHK-biotin [reference compound]”, the “binding to immobilized PSMA compared to BSA” value in test [4] is “no specific binding to immobilized PSMA compared to BSA”.

In the case of WQPDTAHHWATL-OH, the “inhibition of PSMA in LNCaP cell lysates” value in test [5] was “inhibited”.

As to WQPDTAHHWATLK(Biotin), in test [4], the “binding to immobilized PSMA compared to BSA” value was “significantly higher binding to PSMA at peptide concentrations of 50 μM and 500 μM”.
